Data set [1] can be described thus: Lipophilicity, log D of the compound by HPLC analysis. The class given is physicochemical.
Data set [2] in a line: Half-life in Wistar Han rat. The class given is ADME. The following applies: in vivo.
Data set [3] is described as follows: Unbound volume of distribution in Beagle dog. The class given is ADME, Canis lupus familiaris. As to conditions: in vivo.
Data set [4] can be described thus: Half-life in Beagle dog. The class given is ADME, Canis lupus familiaris. As to conditions: in vivo.
Data set [5] is described as follows: Intrinsic clearance in Beagle dog at 0.05 mg/kg. Format: ADME, organism-based, Canis lupus familiaris. As to conditions: in vivo.
Data set [6] in a line: Volume of distribution in Wistar Han rat. The class given is ADME. The following applies: in vivo.
Data set [7] in a line: Unbound volume of distribution in Wistar Han rat. The following applies: in vivo. The class given is ADME.
Data set [8] is described as follows: Intrinsic clearance in Wistar Han rat at 0.05 mg/kg, iv or 1 mg/kg, po. Format: ADME, organism-based. The following applies: in vivo.
Data set [9] is described as follows: Volume of distribution in Beagle dog. Format: ADME, Canis lupus familiaris. The following applies: in vivo.
Data set [10] in a line: Plasma clearance in Wistar Han rat at 0.05 mg/kg, iv or 1 mg/kg, po. Format: ADME, organism-based.
Data set [11] in a line: Plasma clearance in Beagle dog at 0.05 mg/kg. Format: ADME, organism-based, Canis lupus familiaris.
The nature of data set [12]: Inhibition of adenosine transporter in human HeLa cells assessed as reduction in [3H]adenosine uptake preincubated for 30 mins followed by [3H]adenosine addition and measured after 60 mins. Format: cell-based.
Data set [13] can be described thus: Apparent permeability in pig LLC-PK1 cells. Format: ADME, cell-based, Sus scrofa.
Data set [14] deals with PI3-kinase p110-delta/p85-alpha (Homo sapiens, UniProt O00329). In words: Inhibition of N-terminal His6-tagged recombinant full length human p110delta/untagged recombinant full length human p85alpha expressed in baculovirus infected Sf21 insect cells using PIP2 as substrate preincubated for 15 mins followed by substrate addition and measured after 1 hr by HTRF assay.
The target of data set [15] is T1, Phosphatidylinositol 4,5-bisphosphate 3-kinase catalytic subunit delta isoform (Homo sapiens, UniProt O00329).
T1 sequence (O00329 whole entry): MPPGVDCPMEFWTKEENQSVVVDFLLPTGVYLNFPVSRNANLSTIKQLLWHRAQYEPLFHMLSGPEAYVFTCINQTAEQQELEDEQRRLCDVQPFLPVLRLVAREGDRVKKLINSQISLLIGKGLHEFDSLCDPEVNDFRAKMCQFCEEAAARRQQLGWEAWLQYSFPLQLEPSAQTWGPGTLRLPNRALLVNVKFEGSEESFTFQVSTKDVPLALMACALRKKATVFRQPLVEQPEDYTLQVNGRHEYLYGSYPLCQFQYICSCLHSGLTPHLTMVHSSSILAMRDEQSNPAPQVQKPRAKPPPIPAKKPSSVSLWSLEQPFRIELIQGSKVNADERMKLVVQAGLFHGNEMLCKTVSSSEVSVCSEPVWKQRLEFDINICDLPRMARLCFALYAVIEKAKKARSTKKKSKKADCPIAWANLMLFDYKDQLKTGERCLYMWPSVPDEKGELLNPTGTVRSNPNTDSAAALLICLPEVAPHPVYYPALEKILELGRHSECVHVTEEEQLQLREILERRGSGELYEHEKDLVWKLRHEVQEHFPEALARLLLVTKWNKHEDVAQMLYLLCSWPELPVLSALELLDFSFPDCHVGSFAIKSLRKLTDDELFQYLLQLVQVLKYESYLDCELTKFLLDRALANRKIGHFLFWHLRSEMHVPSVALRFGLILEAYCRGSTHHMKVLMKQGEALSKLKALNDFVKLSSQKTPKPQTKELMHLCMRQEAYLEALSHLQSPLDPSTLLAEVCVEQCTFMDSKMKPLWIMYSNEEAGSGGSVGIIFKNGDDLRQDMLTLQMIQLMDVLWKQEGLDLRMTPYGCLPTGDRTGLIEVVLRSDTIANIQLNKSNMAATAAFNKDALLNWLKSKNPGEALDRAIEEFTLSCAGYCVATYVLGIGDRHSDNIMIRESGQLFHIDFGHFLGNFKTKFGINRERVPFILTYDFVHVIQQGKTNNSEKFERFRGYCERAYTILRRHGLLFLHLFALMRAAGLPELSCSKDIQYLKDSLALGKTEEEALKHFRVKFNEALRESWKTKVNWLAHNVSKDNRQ
In words: Inhibition of PI3Kdelta in human Ramos cells assessed as reduction in anti-IgM-antibody-induced phosphorylation of AKT at Ser473 residue preincubated for 20 mins followed by anti-IgM antibody stimulation and measured after 30 mins by alphascreen assay. Format: cell-based.

In data set [16] the target is T1, Phosphatidylinositol 4,5-bisphosphate 3-kinase catalytic subunit delta isoform. Briefly: Inhibition of PI3Kdelta in human whole blood assessed as reduction in anti-CD79b antibody-induced CD69 expression preincubated for 60 mins followed by anti-CD79b antibody stimulation and measured after 3 hrs by FACS analysis. The class given is tissue-based. (In general: In flow cytometry, cells or beads pass a laser one at a time.)

Sequence of PI3-kinase p110-delta/p85-alpha (P27986 whole entry, one chain of several, canonical isoform): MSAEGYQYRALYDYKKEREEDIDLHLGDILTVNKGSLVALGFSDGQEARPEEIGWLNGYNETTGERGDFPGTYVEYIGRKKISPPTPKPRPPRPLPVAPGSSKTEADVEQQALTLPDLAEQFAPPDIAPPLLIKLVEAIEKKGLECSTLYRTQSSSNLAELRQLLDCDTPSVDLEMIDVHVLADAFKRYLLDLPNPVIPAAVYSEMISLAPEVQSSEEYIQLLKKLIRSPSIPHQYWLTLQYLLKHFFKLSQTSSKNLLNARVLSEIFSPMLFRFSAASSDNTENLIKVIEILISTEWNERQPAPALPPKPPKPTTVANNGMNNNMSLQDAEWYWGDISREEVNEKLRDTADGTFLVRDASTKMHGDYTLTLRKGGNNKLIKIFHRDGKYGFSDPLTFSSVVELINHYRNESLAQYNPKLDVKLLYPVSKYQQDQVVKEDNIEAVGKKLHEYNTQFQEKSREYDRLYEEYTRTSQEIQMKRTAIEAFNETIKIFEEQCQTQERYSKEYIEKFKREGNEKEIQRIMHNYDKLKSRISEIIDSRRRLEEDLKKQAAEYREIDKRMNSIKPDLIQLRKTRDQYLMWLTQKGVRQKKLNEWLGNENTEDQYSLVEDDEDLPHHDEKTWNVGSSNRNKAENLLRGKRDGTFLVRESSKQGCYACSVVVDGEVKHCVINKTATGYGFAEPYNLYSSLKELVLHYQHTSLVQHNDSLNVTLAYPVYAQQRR

In the case of `CCC(=O)N1CC[C@H](Oc2ncnc3c2nc(-c2cnc(C)nc2)n3CC)C1`, the logD (as a rule, lipophilicity at a set pH, counting ionised and neutral species) in [1] is 0.8. The half-life (usually how long it takes for the measured level to halve) in [2] was 1.2 h; in [4], 3.9 h. Further, the Vdu in data set [3] worked out at 2.7 L/kg; in data set [7], 2.4 L/kg. Further, the CL stood at 11 mL/min/kg in data set [5] and 31 mL/min/kg in data set [8]. Besides, the results for the Vd in [6] and in [9] were 1.2 L/kg and 1.9 L/kg, respectively. Besides, the values for the clearance in data set [10] and in data set [11] were 12 mL/min/kg and 6.1 mL/min/kg, respectively. Besides, in [12], the IC50 – broadly, the concentration at which inhibition is half-maximal – was more than 10000 nM. Further, the Papp – broadly, the rate of passage across a membrane or cell layer, normalised by area and donor concentration – in data set [13] turned out to be 21 ×10⁻⁶ cm/s.
In turn, `CCn1c(-c2cnc(C)nc2)nc2c(O[C@H]3CCN(C(=O)C4CCOC4)C3)ncnc21` (stereo partly specified) returned a logD in data set [1] of 0.7. The half-life in data set [2] was 1.4 h; in [4], 3.8 h. In addition, the Vdu in data set [3] and in data set [7] was 0.9 L/kg in each case. Moreover, the CL in [5] turned out to be 4.2 mL/min/kg; in data set [8] it was 12 mL/min/kg. For the same compound, the volume of distribution (Vd) (usually the apparent volume that relates the amount in the body to the concentration in plasma or blood) in [6] worked out at 0.5 L/kg; in data set [9] it was 0.7 L/kg. Besides, the clearance in [10] worked out at 6.2 mL/min/kg; in data set [11], 3 mL/min/kg. Moreover, the IC50 in [14] was 6 nM; in data set [12], more than 10000 nM.
`CCn1c(-c2cnc(C)nc2)nc2c(N[C@H]3CCN(C(=O)C4CCOC4)C3)ncnc21` (stereo partly specified) gave a logD in data set [1] of 0.6. The half-life in data set [2] was 0.6 h. The compound also registered a Vd in data set [6] of 0.7 L/kg. This compound displayed a Vdu in [7] of 2.3 L/kg. Further, the CL in data set [8] amounted to 74 mL/min/kg. In data set [10], this compound came in with a clearance of 18 mL/min/kg. In addition, the values for the IC50 in data set [14] and in [12] were 1.6 nM and more than 10000 nM, respectively.
Turning to `CCn1c(-c2ccc(C(F)(F)F)nc2)nc2c(O[C@H]3CCN(C(=O)C4CC4)C3)ncnc21`, in data set [1], the log distribution coefficient (logD) turned out to be 2.3. The compound also had a half-life in data set [2] of 0.7 h. For the same compound, the IC50 came out at 49 nM in data set [15], 5.1 nM in data set [14] and 5600 nM in data set [12]. Further, the Vd in data set [6] worked out at 0.7 L/kg. For the same compound, in [7], the Vdu is 8.3 L/kg. The same compound had a CL in [8] of 240 mL/min/kg. The same compound displayed a clearance in [10] of 15 mL/min/kg.
In turn, `CCn1c(-c2cnc(C)nc2)nc2c(O[C@H]3CCN(C(=O)C4CC(F)(F)C4)C3)ncnc21` gave a log distribution coefficient (logD) in data set [1] of 1.5. For the same compound, the half-life is 1.4 h in data set [2] and 0.8 h in data set [4]. The Vdu came to 2.5 L/kg in [3] and 3 L/kg in data set [7]. Moreover, the IC50 amounted to 32 nM in [15], 84 nM in data set [16], 3.8 nM in data set [14] and 9900 nM in data set [12]. Further, the CL was 170 mL/min/kg in data set [5] and 28 mL/min/kg in [8]. In addition, the results for the volume of distribution (Vd) in [6] and in [9] were 0.5 L/kg and 1.4 L/kg, respectively. In addition, the clearance amounted to 6 mL/min/kg in data set [10] and 23 mL/min/kg in data set [11].
Regarding `CCn1c(-c2cnc(C)nc2)nc2c(O[C@H]3CCN(C(=O)C4CCC4)C3)ncnc21`, the logD in data set [1] amounted to 1.3. The half-life in [2] is 0.3 h; in data set [4] it was 1.1 h. In addition, the Vdu in data set [3] amounted to 1.4 L/kg; in data set [7], 4 L/kg. Moreover, the half-maximal inhibitory concentration (IC50) turned out to be 14 nM in data set [15], 1.2 nM in data set [14] and 7700 nM in data set [12]. Moreover, the results for the CL in [5] and in [8] were 27 mL/min/kg and 270 mL/min/kg, respectively. Besides, the Vd in data set [6] was 0.6 L/kg; in data set [9], 1 L/kg. Moreover, the clearance was determined as 28 mL/min/kg in data set [10] and 12 mL/min/kg in data set [11].
`CCn1c(-c2cnc(C)nc2)nc2c(N[C@H]3CCN(C(=O)C4CC(F)(F)C4)C3)ncnc21`: the logD in [1] was determined as 1.5. The same compound showed a half-life in data set [2] of 0.4 h. The IC50 in [15] was 13 nM; in data set [14], 2.2 nM; in data set [12] it was 3800 nM. The compound also registered a Vd in data set [6] of 0.9 L/kg. The Vdu in data set [7] was 18 L/kg. Moreover, the CL in [8] came to 760 mL/min/kg. The clearance in data set [10] was found to be 26 mL/min/kg.

For the origin of these results see ChEMBL document CHEMBL4834420, “Projected Dose Optimization of Amino- and Hydroxypyrrolidine Purine PI3Kδ Immunomodulators” (J Med Chem, 2021).
